According to BindingDB's records for patent US20240083921 (Reistone Biopharma Company, 2024):

Biological target: cAMP-specific 3',5'-cyclic phosphodiesterase 4B (Homo sapiens, UniProt Q07343)
Test: In vitro PDE4B Enzyme Activity Detection Assay
Procedure: 1. Experimental MaterialsName Brand Cat No.PDE4B1 enzyme BPS 60041Trequinsin TOCRIS 2337/10IMAP FP IPP Explorer Kit Molecular Device R8124FAM-cAMP Molecular Device R7506OptiPlate -384 F PerkinElmer 6007279black assay plate 384 well Echo plate Labcyte PP-02002. Experimental StepsFirst, a stock solution of the compound at a concentration of 10 mM was prepared in a test tube with 90% DMSO (10% water), and it was used to prepare a series of dilutions with a dilution factor of 1:5 and final concentrations starting from 100 μM to as low as 0.05 nM. 0.2 μl of the compound solution was transferred into a 384-well reaction plate, and 0.2 μl of 100% DMSO was transferred into both the negative and positive controls. Then, 10 μl of 2 PDE4B1 enzyme solution (making a final concentration of 0.04 nM) was added to each well, and 10 μl of 1 reaction buffer instead of the enzyme solution was added to the zero enzyme activity control wells. The plate was centrifuged at 1,000 rpm for 1 min and incubated at room temperature for 15 min. […] After the incubation, the RLU data were read and the inhibition rate was calculated. The IC50 value was calculated from the concentration-inhibition fitted curve, wherein the maximum value refers to the reading of the DMSO control and the minimum value refers to the reading of the zero enzyme activity control.

Chain of cAMP-specific 3',5'-cyclic phosphodiesterase 4B (Q07343 whole entry): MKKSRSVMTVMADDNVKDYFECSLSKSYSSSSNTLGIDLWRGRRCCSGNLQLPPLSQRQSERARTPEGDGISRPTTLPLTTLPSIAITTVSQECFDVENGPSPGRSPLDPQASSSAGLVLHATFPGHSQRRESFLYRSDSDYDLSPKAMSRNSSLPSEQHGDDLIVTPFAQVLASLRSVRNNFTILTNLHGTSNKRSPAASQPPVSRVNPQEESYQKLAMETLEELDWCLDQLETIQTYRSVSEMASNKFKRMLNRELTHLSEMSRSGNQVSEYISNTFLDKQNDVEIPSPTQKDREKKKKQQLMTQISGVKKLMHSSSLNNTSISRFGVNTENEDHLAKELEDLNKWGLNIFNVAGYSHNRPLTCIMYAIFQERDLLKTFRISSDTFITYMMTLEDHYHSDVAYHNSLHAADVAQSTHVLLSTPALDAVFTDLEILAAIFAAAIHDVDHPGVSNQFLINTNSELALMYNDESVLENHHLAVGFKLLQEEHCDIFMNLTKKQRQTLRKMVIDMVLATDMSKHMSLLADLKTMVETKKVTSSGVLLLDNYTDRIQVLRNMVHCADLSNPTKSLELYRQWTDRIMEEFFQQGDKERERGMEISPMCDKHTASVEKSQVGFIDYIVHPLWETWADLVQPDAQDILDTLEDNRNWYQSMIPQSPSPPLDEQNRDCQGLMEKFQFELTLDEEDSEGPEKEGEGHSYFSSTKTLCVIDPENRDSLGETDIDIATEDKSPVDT

Compound	IC50
COc1ccc(-c2cncc(C3COB(O)C3)c2)c2c1OC(C)(C)CO2 (configuration not stated) [US20240083921, Compound 8]	0.22 nM
COc1ccc(-c2cncc([C@H]3COB(O)C3)n2)c2c1OC(C)(C)CC2 [US20240083921, Compound 11-2]	3.62 nM
